Laboratory results from ChEMBL document CHEMBL1138973, “Opiate receptor binding properties of morphine-, dihydromorphine-, and codeine 6-O-sulfate ester congeners” (Bioorg Med Chem Lett, 2006).

Legend:
Mu-type opioid receptor = Mu-type opioid receptor (Cavia porcellus, UniProt P97266); assay: Displacement of radiolabeled DAMGO from mu opioid receptor in Hartley guinea pig brain
[1] = molecular target: Kappa-type opioid receptor (Cavia porcellus, UniProt P41144); assay: Displacement of radiolabeled U69593 from kappa1 opioid receptor in Hartley guinea pig brain
[2] = Plasma half life in rat; assay type: ADME, organism-based

Chain of Mu-type opioid receptor (P97266 whole entry): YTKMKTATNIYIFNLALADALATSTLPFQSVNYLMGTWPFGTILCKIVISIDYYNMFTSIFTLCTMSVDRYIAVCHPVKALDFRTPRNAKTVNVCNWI
Chain of Kappa-type opioid receptor (P41144 whole entry): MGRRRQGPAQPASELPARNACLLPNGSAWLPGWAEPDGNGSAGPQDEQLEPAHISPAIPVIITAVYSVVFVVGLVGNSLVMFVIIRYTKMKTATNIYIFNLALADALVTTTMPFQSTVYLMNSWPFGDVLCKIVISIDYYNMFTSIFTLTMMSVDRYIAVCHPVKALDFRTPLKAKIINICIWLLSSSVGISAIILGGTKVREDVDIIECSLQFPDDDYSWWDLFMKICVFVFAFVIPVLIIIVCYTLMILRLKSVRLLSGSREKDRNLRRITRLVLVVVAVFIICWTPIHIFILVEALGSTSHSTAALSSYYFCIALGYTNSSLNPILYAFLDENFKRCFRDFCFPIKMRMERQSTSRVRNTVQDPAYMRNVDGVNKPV

SMILES | Ki (Mu-type opioid receptor) [µM] | Ki [1] [µM] | half-life [2] [h]
CC(=O)Oc1ccc2c3c1O[C@H]1[C@@H](OS(=O)(=O)[O-])C=C[C@H]4[C@@H](C2)[N+](C)(C)CC[C@@]341 | 0.0342 | > 10 | > 1
CN1CC[C@]23c4c5ccc(O)c4O[C@H]2[C@@H](OS(=O)(=O)O)C=C[C@H]3[C@H]1C5 | 0.0009 |  | 
C=CCN1CCC23c4c5ccc(O)c4O[C@@H]2/C(=N/NC(=O)c2ccccc2)CCC3(O)C1C5 (some centres undefined) | 0.0002 | 0.0004 | 
CCC(=O)Oc1ccc2c3c1O[C@H]1[C@@H](OS(=O)(=O)O)C=C[C@H]4[C@@H](C2)N(C)CC[C@@]341 | 0.0006 |  | 
CN1CC[C@]23c4c5ccc(OS(=O)(=O)O)c4O[C@H]2[C@@H](O)C=C[C@H]3[C@H]1C5 | 0.101 | > 10 | 
CN1CC[C@]23c4c5ccc(OC(=O)C(C)(C)C)c4O[C@H]2[C@@H](OS(=O)(=O)O)C=C[C@H]3[C@H]1C5 | 0.0007 |  | 
COc1ccc2c3c1O[C@H]1[C@@H](OS(=O)(=O)O)CC[C@H]4[C@@H](C2)N(C)CC[C@@]341 | 0.196 | > 10 | 
CC(C)C(=O)Oc1ccc2c3c1O[C@H]1[C@@H](OS(=O)(=O)O)C=C[C@H]4[C@@H](C2)N(C)CC[C@@]341 | 0.0198 |  | 
CC1(C)SSC(C)(C)[C@@H](NC(=O)[C@@H](N)Cc2ccc(O)cc2)C(=O)NCC(=O)N[C@@H](Cc2ccc(Cl)cc2)C(=O)N[C@H]1C(=O)O |  | > 10 | 
CC(=O)Oc1ccc2c3c1O[C@H]1[C@@H](OS(=O)(=O)O)C=C[C@H]4[C@@H](C2)N(C)CC[C@@]341 | 0.0008 |  | > 1
CN1CC[C@]23c4c5ccc(OC(=O)c6ccccc6)c4O[C@H]2[C@@H](OS(=O)(=O)O)C=C[C@H]3[C@H]1C5 | 0.0369 | > 10 | 
CN1CC[C@]23c4c5ccc(O)c4O[C@H]2[C@@H](OS(=O)(=O)O)CC[C@H]3[C@H]1C5 | 0.0015 | 3.13 | 
CN1CC[C@]23c4c5ccc(OC(=O)c6ccccc6)c4O[C@H]2[C@@H](OS(=O)(=O)O)CC[C@H]3[C@H]1C5 | 0.0618 | > 10 | 
C[N+]1(C)CC[C@]23c4c5ccc(OC(=O)c6ccccc6)c4O[C@H]2[C@@H](OS(=O)(=O)[O-])C=C[C@H]3[C@H]1C5 | 0.444 | > 10 | 
COc1ccc2c3c1O[C@H]1[C@@H](OS(=O)(=O)O)C=C[C@H]4[C@@H](C2)N(C)CC[C@@]341 | 0.0387 | > 10 | 
CC(=O)Oc1ccc2c3c1O[C@H]1[C@@H](OS(=O)(=O)O)CC[C@H]4[C@@H](C2)N(C)CC[C@@]341 | 0.0137 | > 10 | > 1
